Measured values published in patent US6414222B1, “Gene combinations for herbicide tolerance in corn” (Regents of the University of Minnesota, priority 1993, dated 2002).
Read-outs that look alike come from different tables or passages of the source.

Assays:
[1] = system: Homozygous tolerant S2 seedlings; experiment: Foliar herbicide application, lethal rate; type: in vivo, maize (Zea mays L.); details: for Lethal rates: Homozygous tolerant S2, average of two families, scored 21 days after treatment
Description: Foliar applications of the herbicides were made to greenhouse- or field-grown seedlings at the three- to five-leaf stage. Herbicides were applied in a spray volume of 187 l/ha that includes 2.3 l/ha crop oil concentrate to enhance uptake. Sethoxydim and haloxyfop were applied using commercial formulations (Poast from BASF Corp and Verdict from Dow Elanco, respectively). Visual observations were recorded 14-21 days after herbicide treatments.
For each mutant, two homozygous tolerant R4 families were derived from two different regenerated plants and two heterozygous F1 families were obtained from crosses of R3 homozygous tolerant lines with the susceptible inbreds A188 and A619. Sethoxydim and haloxyfop each were applied at rates ranging from 0.0034 to 7.0 kg/ha. For each genotype a five-rate doubling series was used to determine herbicide lethality. Because of the large differences between wildtype and mutants in herbicide susceptibility, the ranges of herbicide application rates were varied. Two five plant/pot replicates of each family were evaluated for each rate. Herbicide injury symptoms were scored visually 21 days after herbicide treatment. The lethal rate was considered to be the lowest application rate resulting in death of all seedlings in the four replications of each homozygous tolerant genotype or in the eight replications of the heterozygous combinations.

[2] = system: control cell line 2167-9/2160-154; experiment: Callus growth on herbicide medium, control line; type: cell-based, maize; details: for IC50: read-out: Herbicide concentration inhibiting growth 50%
Description: A selection protocol to identify and isolate herbicide-tolerant maize cells was developed to minimize the adverse effects of high herbicide concentrations on somatic embryo development and plant regeneration capacity. The procedure involved exposing tissue to gradually increasing concentrations of herbicide beginning with a sethoxydim concentration representing 1/20th of lethal dose and doubling the herbicide concentration at approximately two-week intervals until the lethal dose (10 μM sethoxydim) was reached. In this way, the herbicide was allowed to take effect slowly with continuous selection pressure, thus permitting herbicide-tolerant cells to accumulate over time while not affecting the potential for plant regeneration.
Approximately 100 grams of vigorously growing, regenerable, friable, embryogenic maize callus tissue established from an F1 immature embryo resulting from the cross A188×B73 were transferred to agar-solidified maintenance medium (Armstrong and Green, Planta, 164, 207 (1985)) in petri plates containing 0.5 μM sethoxydim (BASF) (Parsippany, N.J.). This callus line was designated 2167-9/2160-154. Forty plates were prepared and five clumps of callus tissue weighing about 0.5 grams each were placed on each plate. The 0.5 μM sethoxydim concentration was chosen from growth inhibition studies to provide less than 10-20% growth inhibition during the first two weeks of herbicide exposure. After 14 days, 0.25-0.5 gram pieces of tissue showing vigorous growth rate and retention of embryogenic morphology (i.e., presence of somatic embryos) were subcultured on fresh medium containing 1.0 μM sethoxydim. Eighty plates containing five pieces of tissue per plate were prepared. For each subsequent transfer, all callus tissue showing growth and somatic embryo forming ability was placed on fresh media containing a two-fold increased sethoxydim concentration. Therefore, callus was transferred at two-week intervals to petri plates containing 0.5, 1.0, 2.0, 5.0 and 10.0 μM sethoxydim. During the course of the selection process, the total number of lines decreased as the herbicide-mediated growth inhibition became more intense. […] These lines were designated 2167-9/2160-154 S-1 and 2167-9/2160-154 S-2.
Tolerant cell line 2167-9/2160-154 S-2 (“S-2”) was characterized to evaluate: (1) the magnitude of sethoxydim tolerance; (2) cross-tolerance of haloxyfop; and (3) the biochemical basis for the tolerance. Callus tissue from S-2 that had been maintained on 10 μM sethoxydim was transferred to media containing up to 100 μM sethoxydim. One-half gram of S-2 tissue was plated on a 7 cm filter paper as a lawn overlaying 50 ml agar-solidified culture medium containing 0, 0.5, 1.0, 2.0, 5.0, 10.0, 50.0 and 100 μM sethoxydim, and cultured for two weeks. […]

[3] = system: ACCase of cell line 2167-9/2160-154 H-1; experiment: Herbicide inhibition of ACCase, line H-1; type: biochemical, maize; details: cell line H-1
Description: (§1) Maize chloroplasts, isolated as described above, were suspended in buffer C (0.1 M Tricine-KOH, pH 8.0; 0.3 M glycerol, and 1 mM DTT) and homogenized in a glass tissue homogenizer. The disrupted chloroplast fraction was centrifuged at 16,000 g for 15 minutes. The supernatant was desalted on a Sephadex G-25 column (1.5×5 cm equilibrated with 0.1 M Tricine-KOH, pH 8.0; and 0.3 M glycerol) and assayed directly. ACCase activity (B. J. Nikolau et al., Arch. Biochem. Biophys., 211, 605-612 (1981)) was assayed at 30° C. in a 0.2 ml volume which contained 1 mM ATP, 3 mM acetyl coenzyme A, 2.5 mM MgCl2, 50 mM KCl, 0.5 mM DTT, and 15 mM [^14C]NaHCO3 (0.17 mCi/mmol). Reactions were initiated by addition of acetyl coenzyme A and stopped by addition of 25 μl of 12 N HCl. Product formation was determined by the radioactivity found in an acid stable fraction by liquid scintillation spectrometry. Enzyme activity was linear for 15 minutes.
(§2) Acetyl Coenzyme A Carboxylase (ACCase) was extracted from cell lines S-1, H-1 and H-2 and assayed as described in detail for maize cell line S-2, above.

[4] = system: ACCase of cell line 2167-9/2160-154 H-2; experiment: Herbicide inhibition of ACCase, line H-2; type: biochemical, maize; details: cell line H-2
Description: as §1, §2

fatty acid synthetase = experiment: [14C]malonyl-CoA incorporation into fatty acids, cell-free extracts from corn suspension cultures; type: biochemical, Black Mexican Sweet (BMS) corn
Description: Incorporation of [^14C]malonyl-Coenzyme A into fatty acids (P. B. Hoj et al., supra; and J. B. Ohlrogge et al., Proc. Natl. Acad. Sci. USA, 76, 1194-1198 (1979)) was assayed using cell-free preparations from BMS tissue culture. Cells harvested during logarithmic growth phase were frozen in liquid nitrogen, ground with a mortar and pestle, and thawed in a medium containing: 0.1 M HEPES-KOH, pH 7.5; 0.3 M glycerol, and 5 mM DTT (buffer:tissue, 2:1, v/w). The homogenate was centrifuged at 12,000 g for 20 minutes. The supernatant was filtered through miracloth and centrifuged (125,000 g) for 60 minutes and then filtered through miracloth and assayed. Assays were conducted at 25° C. in a 0.4 ml volume containing: 1.0 mM ATP, 0.32 mM NADPH, 0.38 mM NADH, 25 μM CoA, 10 μM acetyl-CoA, 25 μg acyl-carrier protein, and 12 μM malonyl-CoA (11.54 μCi/μmol). Reactions were initiated by addition of [^14C]malonyl CoA and stopped by addition of 0.4 ml 40% KOH. Label incorporation into fatty acids was determined as above. Chlorophyll (D. I. Arnon, Plant Physiol., 24, 1-15 (1949)) and protein (P. K. Smith et al., Anal. Biochem., 150, 76-85 (1985)) were determined as described therein.

Compound | Lethal rates [1] [kg/ha] | IC50 ([2]; Zea mays, 336 h, control callus, growth after two weeks) [nM] | Fold increase in herbicide concentration that inhibits ACCase activity by 50% vs unselected parent cell line [3] [fold] | Fold increase in herbicide concentration that inhibits ACCase activity by 50% vs unselected parent cell line ([3]; listed as haloxyfop) | Fold increase in herbicide concentration that inhibits ACCase activity by 50% vs unselected parent cell line [4] [fold] | Fold increase in herbicide concentration that inhibits ACCase activity by 50% vs unselected parent cell line ([4]; listed as haloxyfop) | Effect on [14C]malonyl-CoA incorporation into fatty acids (fatty acid synthetase activity) (fatty acid synthetase; haloxyfop 1 μM) | Fold increase over the lethal rate for wildtype plants ([1]; homozygous S2 seedlings, not killed at 7 kg/ha) [fold] | inhibition at 0.5 µM ([2]; Zea mays, 336 h, read-out: Growth inhibition) [%] | IC50 ([2]; Zea mays, 336 h) [nM] | Lethal dose for callus tissue ([2]; tissue culture selection protocol) [µM] | Fold increase in herbicide concentration that inhibits ACCase activity by 50% vs unselected parent cell line ([4]; listed as sethoxydim) | Effect on [14C]malonyl-CoA incorporation into fatty acids (fatty acid synthetase activity) (fatty acid synthetase; sethoxydim 10 μM)
CC(Oc1ccc(Oc2ncc(C(F)(F)F)cc2Cl)cc1)C(=O)O (stereo not shown) [Haloxyfop, 2-[4-[[3-chloro-5-(trifluoromethyl)-2-pyridinyl]oxy]phenoxy]-propanoic acid] | 0.22 | 20 | 7 | more tolerant | 0 | no difference | did not inhibit |  |  |  |  |  | 
CCCC(=NOCC)C1=C(O)CC(CC(C)SCC)CC1=O (stereo not shown) [Sethoxydim, 2-[1-(ethoxyimino)-butyl]-5-[2-(ethylthio)propyl]-3-hydroxy-2-cyclohexen-1-one] | >7.0 |  | 0 |  | 0 |  |  | ≥ 127 | 10 to 20 | 1000 | 10 | no difference | did not inhibit
